Data published in US20080153792A1, “Drug Identification and Treatment Method” (priority 2006, published 2008).
Where two headings read alike, the source gives them in different places.

Key:
[1] = system: mice given a lethal amount of LPS; experiment: lethal shock protocol, lethal amount of bacterial LPS; format: in vivo, mouse; conditions: second assay; oral gavage 24 h before and 1 h after LPS
Protocol: Treatment of lethal inflammation/shock. Two compounds, 16α-bromoepiandrosterone (3β-hydroxy-16α-bromoandrostane-17-one) and 3β,16α-dihydroxy-17-oxoandrostane, were used in a lethal shock protocol. In one protocol, 3 mg of 16α-bromoepiandrosterone was administered to one group of animals by oral gavage, while another group received 3 mg of 16α-bromoepiandrosterone by subcutaneous injection. A group of control animals received a placebo control. In this protocol, the 16α-bromoepiandrosterone was administered to mice at 24 hours before and at 1 hour after administration of a lethal amount of bacterial lipopolysaccharide (LPS). By the end of the observation period, 72 hours after LPS administration, none of the vehicle treated placebo control animals had survived, while 65% of animals that received 16α-bromoepiandrosterone by oral administration survived. 50% of the animals that received 16α-bromoepiandrosterone by subcutaneous injection survived. Animals that survived for 72 hours all recovered from the LPS exposure.
In a second assay, 16α-bromoepiandrosterone or 3β,16α-dihydroxy-17-oxoandrostane was administered to mice by oral gavage at 24 hours before and 1 hour after administration of a lethal amount of LPS. A vehicle treated group of animals was used as the placebo control.

[2] = system: mice, LPS induced lung injury; experiment: lung injury by sublethal LPS to trachea and lungs, BAL cell count; format: in vivo, mouse; conditions: oral gavage 24 h before and 1 h after 100 μg LPS; 48 hours
Protocol: In another assay, the capacity of 16α-bromoepiandrosterone and 3β,16α-dihydroxy-17-oxoandrostane to protect against lung injury induced by exposure to a sublethal amount of LPS in mice was shown. In this assay, the compounds, sterile saline (negative control) or vehicle (vehicle control) were administered to groups of 5 mice by oral gavage at 24 hours before and 1 hour after administration of 100 μg of LPS to the trachea and lungs of animals under light anesthesia. At 48 hours the animals were sacrificed and samples were obtained from the lungs of the animals by bronchiolar alveolar lavage (BAL). The numbers of cells in the BAL fluid were counted, with high numbers of cells showing lung inflammation and damage. In this assay, cells that mediate inflammation and lung damage infiltrate into the lungs in response to the presence of the LPS. In the negative control and vehicle control groups, the BAL fluid contained about 6×10^7 cells/mL. […] Other compounds, e.g., 17α-ethynylandrost-5-ene-3β,7β,17β-triol or 17β-aminoandrost-5-ene-3β-ol, can be characterized in a similar manner.

[3] = system: γ-interferon production by human whole blood; experiment: γ-interferon production in human whole blood exposed to LPS; format: cell-based; conditions: LPS 24 hours; 16α-bromoepiandrosterone at 100 ng/mL
Protocol: Anti-inflammation activity in human cells in vitro. […] The amount of γ-interferon was measured in the growth medium when the cells had been incubated in the presence of LPS for 24 hours.

[4] = system: human peripheral blood mononuclear cells (PBMC); experiment: human mixed lymphocyte reaction (MLR); format: cell-based; conditions: either 300 nM or 30 nM; 6 days; p>0.05
Protocol: Human mixed lymphocyte reaction (MLR). The capacity of 3β,16α-dihydroxy-17-oxoandrostane, 3β,17β-dihydroxy-16-oxoandrostane, 17α-ethynylandrost-5-ene-3β,7β,17β-triol, and 17β-aminoandrost-5-ene-3β-ol to affect antigen specific stimulation in which human T lymphocytes respond to a specific foreign antigen (major histocompatibility complex).
Blood samples were obtained from 3 (2 males, […]) fasting, healthy human volunteers of 23-31 years old. […] The subjects were bled between […] to limit possible fluctuations in the circulating levels of hormones or cytokines that could have influenced the in vitro responses of their lymphocytes. Peripheral blood mononuclear cells (PBMC) were isolated by centrifugation on Ficoll-Hypaque (density 1.077, Biochrom AG, Berlin, Germany) gradients and resuspended in culture medium (RPMI 1640 supplemented with 2 mM L-glutamine, penicillin (100 U/mL) and streptomycin ([…]) (Invitrogen s.rl., Milan, Italy). Autologous (responder) inactivated plasma was used at 10%. Five hundred thousand responder PBMC (PBMCr) and 500,000 allogeneic irradiated (30 Gy) stimulator PBMC (PBMCs) were mixed at a ratio of 1:1 in 200 μL medium and cultured for 6 days in flat bottom 96 well plates (Nunc, Roskilde, Denmark) at a concentration of 300 nM or 30 nM for each of the 4 compounds. The compounds were dissolved in ethanol and then diluted to the desired concentration with culture medium leading to a final solution containing 0.01% of ethanol. This vehicle was used as control. Controls also included PBMCr and PBMCs cultured separately. During the last 8 hours of the culture period the PBMC were pulsed with 1 μCi/well [^3H] thymidine (Amersham, Milan, Italy). The cells were then harvested and radioactivity incorporation measured with a beta cell counter. The mean cpm of quadruplicate wells was calculated. Proliferation of T cells was expressed as a stimulation index: SI=cpm (PMBCs xPBMCr)/cpm (PBMCr)+cpm (PBMCs). Statistical analysis was performed using the Student's t test. The cpm obtained from quadruplicate of each test compound were compared to proliferative responses obtained in control PBMCr and PBMCs cultured in the presence of the vehicle. Differences were considered significant at p<0.05.

NF-κB = experiment: NF-κB-bla THP-1 β-lactamase reporter assay; format: cell-based, human; conditions: Homo sapiens
[5] = metabolic stability in liver microsomes, species not stated; format: in vitro ADME; conditions: compared with androst-5-ene-3β,17β-diol reference compound
Protocol: The protocol was performed as follows. […] (2) Set up samples as follows. […] (4) The internal standard/acetonitrile solution.

[6] = system: CD1 male mice, carrageenan-λ induced pleurisy; experiment: carrageenan-λ induced lung (pleural cavity) inflammation in mice; format: in vivo, mouse; conditions: for number of neutrophils relative to untreated carrageenan-λ control (100%): 4 h after carrageenan; for number of neutrophils in the pleura: 0.1 mg and 0.01 mg doses s.c.
[7] = system: BALB/c mice, OVA sensitized and challenged; experiment: ovalbumin (OVA) sensitized mouse model of asthma; format: in vivo; conditions: for IL-13: s.c. once daily, dexamethasone 5 mg/kg, compound 1 mg/mouse
Protocol: BALB/c mice were sensitized by intraperitoneal injection with OVA (in alum adjuvant) on days 1, and 12. Airways were challenged with OVA on days 28 and 30 by delivery of OVA to the lung, or with saline. […] The remaining animals were divided into 6 groups (6 mice per group). Groups of the mice were treated once daily by subcutaneous injection as follows. Group 1 vehicle control (0.1% carboxymethyl cellulose, 0.9% saline, 2% tween 80, 0.05% phenol). Group 2 dexamethazone (5 mg/kg). Group 3 3α,16α,17α-trihydroxyandrostane (1 mg/mouse). Three animals in groups 1-3 were sacrificed on day 35 at 1 hr after final treatment and the remaining 3 animals in groups 1-3 were sacrificed on day 38.

[8] = system: bone marrow-derived mast cells (BMMC); experiment: mast cell stimulus-coupled degranulation (glucuronidase release); format: cell-based, mouse
Protocol: In another protocol, a population of mast cells was cultivated from murine bone marrow as follows. Briefly, bone marrows from Balb/C mice were flushed from the femur using PBS and a 27 g needle. The cells were cultured in a mixture of ⅔ RPMI-1640 with 19% FBS and cells that secreted IL-3. The bone marrow cells were allowed to differentiate for 18-25 days in the IL-3-containing mixture before being used for experiments. Bone marrow cells cultured in this manner have a phenotype similar to mucosal mast cells and are referred to as bone marrow-derived mast cells (BMMC).
The homogeneity of the in vitro propagated mast cells was checked by conventional flow cytometry techniques and staining for cell-type specific markers. Between days 14 and 21 of propagation, mature mast cells were harvested and prepared for the test cultures. The objective was to assess of the effect of compounds such as dehydroepiandrosterone on mast cell stimulus-coupled degranulation. Prepared mast cells were dispensed into test culture wells at a density of 1×10^7 cells/mL. In control cultures, mast cells were induced to degranulate after cross linking of IgE receptors with IgE antigen-antibody complexes. […] There was no detectable degranulation of mast cells as measured by release of […] from cytosolic storage granules of the cells in the absence of the stimulus. […]

[9] = 0.001 mg s.c. 24 h and 1 h before carrageenan-λ
[10] = 0.01 mg s.c. 24 h and 1 h before carrageenan-λ
[11] = 0.1 mg s.c. 24 h and 1 h before carrageenan-λ

Compound | survival at 72 hours [1] [%] | cell counts in the BAL fluid [2] | production of γ-interferon [3] | immune suppression in the MLR [4] | IC50 (NF-κB; THP-1, read-out: IC50 for inhibition of NF-κB activation, after LPS stimulation, 50% of the maximum inhibition the compound can induce, averages of 2-4 assays) [µM] | metabolism by microsomes [5] | neutrophils in the pleura / pleural exudate ([6]; 0.001 mg dose s.c.) | number of neutrophils relative to untreated carrageenan-λ control (100%) [6, 9] [%] | number of neutrophils relative to untreated carrageenan-λ control (100%) [6, 10] [%] | number of neutrophils in the pleura [6] | volume of pleural exudate ([6]; 0.1 mg dose s.c.) | number of neutrophils relative to untreated carrageenan-λ control (100%) [6, 11] [%] | potency compared with polyclonal anti-TNF-α antibody control ([6]; s.c.) | IL-13 ([7]; day 35) [pg/mL] | IL-5 in lung tissue ([7]; day 38) [pg/mL] | IL-13 ([7]; day 38) [pg/mL] | inhibition at 100 µM ([8]; Mus musculus, BMMC, 100 μM, 5 to 10 minutes before activation with anti-IgE antigen-antibody complexes) [%] | degranulation by compound alone ([8]; no stimulus) | IC50 (NF-κB; THP-1, read-out: IC50, this protocol) [µM]
C[C@]12CC[C@H](O)CC1CC[C@@H]1[C@@H]2CC[C@]2(C)C(=O)[C@H](O)C[C@@H]12 (stereo partly drawn) [3β,16α-dihydroxy-17-oxoandrostane] | 50 | about 4.4×10^7 cells/mL | Reduced production | not appreciably immune suppressive | > 10 | metabolized by microsomes at a rate similar to the androst-5-ene-3β,17β-diol reference compound | inactive | 97 | 73 | significant reduction | significantly reduced | 73 | less potent |  |  |  |  |  | 
C[C@]12CC[C@H]3[C@@H](CCC4C[C@H](O)CC[C@@]43C)[C@@H]1C[C@@H](O)[C@H]2O (stereo partly drawn) [3α,16α,17α-trihydroxyandrostane] |  |  |  |  |  | metabolized by microsomes at a rate similar to the androst-5-ene-3β,17β-diol reference compound |  | 103 | 45 | significant reduction |  | 30 |  | 195 | 90 | 210 |  |  | 
C[C@]12CC[C@H](O)CC1=CC[C@@H]1[C@@H]2CC[C@]2(C)C(=O)CC[C@@H]12 [dehydroepiandrosterone] |  |  |  |  |  |  |  |  |  |  |  |  |  |  |  |  | ~70 | no measurable degranulation | > 10
